Laboratory results reported in US20260356860A1, “2-SUBSTITUTED 3,4A,5,7,8,8A-HEXAHYDRO-4H-THIOPYRANO[4,3-DJPYRIMIDIN-4-ONES FOR WOUND TREATMENT” (priority 2022, published 2026).

Columns and labels:
Assay in all cases: Bacteriostasis, log reduction
Format in all cases: cell-based
[1] = system: E. coli (derived from ATCC ® 8739 ™); details: E. coli ATCC 8739
[2] = system: P. vulgaris (derived from ATCC ® 8427 ™); details: P. vulgaris ATCC 8427
[3] = system: E. coli (derived from ATCC ® 25922 ™); details: E. coli ATCC 25922
[4] = system: P. aeruginosa (derived from ATCC ® 15442 ™); details: P. aeruginosa ATCC 15442
[5] = system: S. maltophilia (derived from ATCC ® 13637 ™); details: S. maltophilia ATCC 13637
[6] = system: S. pyogenes (derived from ATCC ® 19615 ™); details: S. pyogenes ATCC 19615
[7] = system: S. epidermidis (derived from ATCC ® 14990 ™); details: S. epidermidis ATCC 14990
[8] = system: P. aeruginosa (derived from ATCC ® 9027 ™); details: P. aeruginosa ATCC 9027
[9] = system: A. baumannii (derived from ATCC ® 19606 ™); details: A. baumannii ATCC 19606
[10] = system: K. pneumoniae (derived from ATCC ® 10031 ™); details: K. pneumoniae ATCC 10031
[11] = system: S. aureus (derived from ATCC ® 6538 ™); details: S. aureus ATCC 6538
[12] = system: E. faecalis (derived from ATCC ® 19433 ™); details: E. faecalis ATCC 19433

COC(=O)NCCOC(C)(C)c1ccc(-c2nc3c(c(=O)[nH]2)CSCC3)cc1 [Compound 18, methyl (2-((2-(4-(4-oxo-3,5,7,8-tetrahydro-4H-thiopyrano[4,3-d]pyrimidin-2-yl)phenyl)propan-2-yl)oxy)ethyl)carbamate]
Average result ([1]; 24 h): 5.3 × 10^2
Log Reduction ([1]; 24 h): 1.8
Log Value ([1]; 24 h): 2.7
Average result ([1]; 72 h): <200
Log Reduction ([1]; 72 h): >2.2
Log Value ([1]; 72 h): <2.3
Average result ([2]; 24 h): <200
Log Reduction ([2]; 24 h): >3.6
Log Value ([2]; 24 h): <2.3
Average result ([2]; 72 h): <200
Log Reduction ([2]; 72 h): >3.6
Log Value ([2]; 72 h): <2.3
Average result ([3]; 24 h): <200
Log Reduction ([3]; 24 h): >2.3
Log Value ([3]; 24 h): <2.3
Average result ([3]; 72 h): <200
Log Reduction ([3]; 72 h): >2.3
Log Value ([3]; 72 h): <2.3
Average result ([4]; 24 h): <200
Log Reduction ([4]; 24 h): >2.9
Log Value ([4]; 24 h): <2.3
Average result ([4]; 72 h): <200
Log Reduction ([4]; 72 h): >2.9
Log Value ([4]; 72 h): <2.3
Average result ([5]; 24 h): <200
Log Reduction ([5]; 24 h): >2.8
Log Value ([5]; 24 h): <2.3
Average result ([5]; 72 h): <200
Log Reduction ([5]; 72 h): >2.8
Log Value ([5]; 72 h): <2.3
Average result ([6]; 24 h): <200
Log Reduction ([6]; 24 h): >3.2
Log Value ([6]; 24 h): <2.3
Average result ([6]; 72 h): <200
Log Reduction ([6]; 72 h): >3.2
Log Value ([6]; 72 h): <2.3
Average result ([7]; 24 h): 8.0 × 10^2
Log Reduction ([7]; 24 h): 2.0
Log Value ([7]; 24 h): 2.9
Average result ([7]; 72 h): <200
Log Reduction ([7]; 72 h): >2.6
Log Value ([7]; 72 h): <2.3
Average result ([8]; 24 h): <200
Log Reduction ([8]; 24 h): >2.5
Log Value ([8]; 24 h): <2.3
Average result ([8]; 72 h): <200
Log Reduction ([8]; 72 h): >2.5
Log Value ([8]; 72 h): <2.3
Average result ([9]; 24 h): <200
Log Reduction ([9]; 24 h): >3.0
Log Value ([9]; 24 h): <2.3
Average result ([9]; 72 h): <200
Log Reduction ([9]; 72 h): >3.0
Log Value ([9]; 72 h): <2.3
Average result ([10]; 24 h): <200
Log Reduction ([10]; 24 h): >2.5
Log Value ([10]; 24 h): <2.3
Average result ([10]; 72 h): <200
Log Reduction ([10]; 72 h): >2.5
Log Value ([10]; 72 h): <2.3
Average result ([11]; 24 h): 4.7 × 10^4
Log Reduction ([11]; 24 h): 0.5
Log Value ([11]; 24 h): 4.7
Average result ([11]; 72 h): 9.3 × 10^2
Log Reduction ([11]; 72 h): 2.2
Log Value ([11]; 72 h): 3.0
Average result ([12]; 24 h): 2.7 × 10^5
Log Reduction ([12]; 24 h): No
Log Value ([12]; 24 h): 5.4
Average result ([12]; 72 h): 1.9 × 10^5
Log Reduction ([12]; 72 h): No
Log Value ([12]; 72 h): 5.3
